In BigSolDB 2.1:

COc1ccc(C(=O)O)cc1
solubility (mole fraction) (in acetonitrile, 273.15 K): 0.00105
solubility (mole fraction) (in acetonitrile, 278.15 K): 0.00122
solubility (mole fraction) (in acetonitrile, 283.15 K): 0.00156
solubility (mole fraction) (in acetonitrile, 288.15 K): 0.00194
solubility (mole fraction) (in acetonitrile, 293.15 K): 0.00231
solubility (mole fraction) (in acetonitrile, 298.15 K): 0.00281
solubility (mole fraction) (in acetonitrile, 303.15 K): 0.00351
solubility (mole fraction) (in acetonitrile, 308.15 K): 0.00419
solubility (mole fraction) (in acetonitrile, 313.15 K): 0.00492
solubility (mole fraction) (in acetonitrile, 318.15 K): 0.00603
solubility (mole fraction) (in chloroform, 273.15 K): 0.00116
solubility (mole fraction) (in chloroform, 278.15 K): 0.00135
solubility (mole fraction) (in chloroform, 283.15 K): 0.00173
solubility (mole fraction) (in chloroform, 288.15 K): 0.0021
solubility (mole fraction) (in chloroform, 293.15 K): 0.00251
solubility (mole fraction) (in chloroform, 298.15 K): 0.00299
solubility (mole fraction) (in chloroform, 303.15 K): 0.00383
solubility (mole fraction) (in chloroform, 308.15 K): 0.0045
solubility (mole fraction) (in chloroform, 313.15 K): 0.00538
solubility (mole fraction) (in chloroform, 318.15 K): 0.00637
solubility (mole fraction) (in ethanol, 273.15 K): 0.00549
solubility (mole fraction) (in ethanol, 278.15 K): 0.00653
solubility (mole fraction) (in ethanol, 283.15 K): 0.00757
solubility (mole fraction) (in ethanol, 288.15 K): 0.00887
solubility (mole fraction) (in ethanol, 293.15 K): 0.0101
solubility (mole fraction) (in ethanol, 298.15 K): 0.0118
solubility (mole fraction) (in ethanol, 303.15 K): 0.0136
solubility (mole fraction) (in ethanol, 308.15 K): 0.0163
solubility (mole fraction) (in ethanol, 313.15 K): 0.0188
solubility (mole fraction) (in ethanol, 318.15 K): 0.0221
solubility (mole fraction) (in ethyl acetate, 273.15 K): 0.0053
solubility (mole fraction) (in ethyl acetate, 278.15 K): 0.00601
solubility (mole fraction) (in ethyl acetate, 283.15 K): 0.00728
solubility (mole fraction) (in ethyl acetate, 288.15 K): 0.00853
solubility (mole fraction) (in ethyl acetate, 293.15 K): 0.00954
solubility (mole fraction) (in ethyl acetate, 298.15 K): 0.0112
solubility (mole fraction) (in ethyl acetate, 303.15 K): 0.0128
solubility (mole fraction) (in ethyl acetate, 308.15 K): 0.0142
solubility (mole fraction) (in ethyl acetate, 313.15 K): 0.0167
solubility (mole fraction) (in ethyl acetate, 318.15 K): 0.0207
solubility (mole fraction) (in isopropanol, 273.15 K): 0.00377
solubility (mole fraction) (in isopropanol, 278.15 K): 0.00489
solubility (mole fraction) (in isopropanol, 283.15 K): 0.00597
solubility (mole fraction) (in isopropanol, 288.15 K): 0.00722
solubility (mole fraction) (in isopropanol, 293.15 K): 0.00872
solubility (mole fraction) (in isopropanol, 298.15 K): 0.0105
solubility (mole fraction) (in isopropanol, 303.15 K): 0.0127
solubility (mole fraction) (in isopropanol, 308.15 K): 0.0152
solubility (mole fraction) (in isopropanol, 313.15 K): 0.0176
solubility (mole fraction) (in isopropanol, 318.15 K): 0.0211
solubility (mole fraction) (in methanol, 273.15 K): 0.00454
solubility (mole fraction) (in methanol, 278.15 K): 0.00526
solubility (mole fraction) (in methanol, 283.15 K): 0.00632
solubility (mole fraction) (in methanol, 288.15 K): 0.00752
solubility (mole fraction) (in methanol, 293.15 K): 0.00857
solubility (mole fraction) (in methanol, 298.15 K): 0.0102
solubility (mole fraction) (in methanol, 303.15 K): 0.0117
solubility (mole fraction) (in methanol, 308.15 K): 0.0138
solubility (mole fraction) (in methanol, 313.15 K): 0.0161
solubility (mole fraction) (in methanol, 318.15 K): 0.0193
solubility (mole fraction) (in methyl acetate, 273.15 K): 0.00527
solubility (mole fraction) (in methyl acetate, 278.15 K): 0.00611
solubility (mole fraction) (in methyl acetate, 283.15 K): 0.0073
solubility (mole fraction) (in methyl acetate, 288.15 K): 0.00849
solubility (mole fraction) (in methyl acetate, 293.15 K): 0.00968
solubility (mole fraction) (in methyl acetate, 298.15 K): 0.0112
solubility (mole fraction) (in methyl acetate, 303.15 K): 0.0131
solubility (mole fraction) (in methyl acetate, 308.15 K): 0.0153
solubility (mole fraction) (in methyl acetate, 313.15 K): 0.0176
solubility (mole fraction) (in methyl acetate, 318.15 K): 0.0213
solubility (mole fraction) (in n-propanol, 273.15 K): 0.00455
solubility (mole fraction) (in n-propanol, 278.15 K): 0.00527
solubility (mole fraction) (in n-propanol, 283.15 K): 0.00631
solubility (mole fraction) (in n-propanol, 288.15 K): 0.00754
solubility (mole fraction) (in n-propanol, 293.15 K): 0.00895
solubility (mole fraction) (in n-propanol, 298.15 K): 0.0106
solubility (mole fraction) (in n-propanol, 303.15 K): 0.0127
solubility (mole fraction) (in n-propanol, 308.15 K): 0.0149
solubility (mole fraction) (in n-propanol, 313.15 K): 0.0174
solubility (mole fraction) (in n-propanol, 318.15 K): 0.0201
